Source: article PMC7932521, “2-aminobenzimidazoles for leishmaniasis: From initial hit discovery to in vivo profiling” (PLoS Neglected Tropical Diseases, 2021)

test system: not listed separately; assay: Parallel artificial membrane permeability assay (PAMPA); assay type: in vitro ADME; details: PAMPA, S1 Data; read-out: PAMPA Pe
Experimental: To determine the passive permeability of the compounds, a 96-well plate containing membranes pre-coated with lipids (Corning Gentest # 353015) was used. The solutions of the compounds were prepared by diluting the stock solutions (10mM) in phosphate buffered saline (PBS) pH 6.5 at a final concentration of 10μM. The solutions diluted in PBS pH 6.5 were then added to the donor portion of the plate (300 μl/well), while PBS pH 7.4 (200 μl/well) was added to the acceptor portion. The two portions of the plate were then coupled, and the system was incubated for 5 h at 37°C. At the end of the incubation, samples were collected from the donor and acceptor plates, and then added to plates containing quench solution (10% water and 90% methanol: acetonitrile (50:50) + 50 nM tolbutamide). The final concentrations of compounds in the donor, acceptor, and initial solution (T0) wells were analyzed using LC-MS/MS. The results were used to calculate an effective permeability (Pe) value. The PAMPA assay was performed in triplicate (n = 3).

Point of comparison: `Cn1nccc1C(=O)Nc1nc2cccnc2n1CC(F)(F)F` [Compound 53, O=C(c1ccnn1C)Nc2nc(cccn3)c3n2CC(F)(F)F], Papp at 5 h, 10 μM 24.3 ×10⁻⁶ cm/s. Against it:
- Cn1nccc1C(=O)Nc1nc2ccc(C#N)cc2n1CC(F)F [Compound 47, FC(F)Cn1c(cc(C#N)cc2)c2nc1NC(c3ccnn3C)=O] — 2.3-fold lower, 10.6 ×10⁻⁶ cm/s
- N#Cc1ccc2nc(NC(=O)c3cnc(C(F)(F)F)nc3)n(CC(F)(F)F)c2c1 [Compound 46, O=C(c1cnc(C(F)(F)F)nc1)Nc2nc(ccc(C#N)c3)c3n2CC(F)(F)F] — 17-fold lower, 1.46 ×10⁻⁶ cm/s
- Cn1nccc1C(=O)Nc1nc2ccc(C#N)cc2n1C1CC1 [Compound 31, O=C(c1ccnn1C)Nc2nc(ccc(C#N)c3)c3n2C4CC4] — 1.7-fold lower, 14.4 ×10⁻⁶ cm/s
- Cc1ccc(C(=O)Nc2nc3ccc(C#N)cc3n2CC(F)(F)F)cn1 [Compound 42, O=C(c1ccc(C)nc1)Nc2nc(ccc(C#N)c3)c3n2CC(F)(F)F] — 1.8-fold lower, 13.2 ×10⁻⁶ cm/s

test system: Leishmania infantum MHOM/MA(BE)/67/ITMAP263 amastigotes; assay: L. infantum intracellular amastigote assay in PMM; assay type: cell-based; details: CC50 / L. infantum IC50
Experimental: (§1) Leishmania infantum MHOM/MA(BE)/67/ITMAP263 amastigotes were collected from the spleen of infected donor Golden hamsters. Primary peritoneal mouse macrophages (PMM) were used as host cells for in vitro assays. PMM were collected from Swiss mice after 2 days of peritoneal stimulation with a 2% suspension of potato starch and maintained in RPMI-1640 medium supplemented with 200 mM L-glutamine, antibiotics and 5% FCS at 37°C and 5% CO2. Promastigotes of L. infantum chagasi (luciferase) (MHOM/BR/2005/NLC) obtained as described in Reimão et al.,[27] were grown in M199 medium supplemented with 10% FCS, 0.25% hemin, 32 μg/ml hygromycin and 2% sterile human urine at 25°C and 5% CO2.
(§2) Stock solutions of the compounds at 20 mM were prepared in 100% DMSO. Next, the compounds were serially pre-diluted in DMSO followed by a further dilution in demineralized water to assure a final in-test DMSO concentration below 1%. The compounds were tested at 4-fold dilutions starting at 64 μM.
For the antileishmania in vitro assays, 3×10^4 PMM/well were seeded in 96-well plates. After 24h, 5×10^5 amastigotes/well were added and incubated for 2h at 37°C. Next, the compounds in 4-fold serial dilutions were added and the plates were further incubated for 5 days (37°C, 5% CO2). Parasite burdens were assessed using an inverted microscope after Giemsa staining. The results were expressed as percent reduction in parasite burdens compared to negative control wells (100% growth) and IC50 values were determined. Values represent the geometric mean of at least two independent experiments. Miltefosine was used as the positive control in all plates.

Point of comparison: `Cn1nccc1C(=O)Nc1nc2ccc(C#N)cc2n1C1CC1` [Compound 31, O=C(c1ccnn1C)Nc2nc(ccc(C#N)c3)c3n2C4CC4], “SI: selectivity index (CC50 / IC50)” value 2. Against it:
- Cn1nccc1C(=O)Nc1nc2ccc(C#N)cc2n1CC(F)F [Compound 47, FC(F)Cn1c(cc(C#N)cc2)c2nc1NC(c3ccnn3C)=O] — higher, 3
- Cn1nccc1C(=O)Nc1nc2cccnc2n1CC(F)(F)F [Compound 53, O=C(c1ccnn1C)Nc2nc(cccn3)c3n2CC(F)(F)F] — higher, 4
- N#Cc1ccc2nc(NC(=O)c3cnc(C(F)(F)F)nc3)n(CC(F)(F)F)c2c1 [Compound 46, O=C(c1cnc(C(F)(F)F)nc1)Nc2nc(ccc(C#N)c3)c3n2CC(F)(F)F] — higher, 4
- Cc1ccc(C(=O)Nc2nc3ccc(C#N)cc3n2CC(F)(F)F)cn1 [Compound 42, O=C(c1ccc(C)nc1)Nc2nc(ccc(C#N)c3)c3n2CC(F)(F)F] — the same, 2

same assay, conditions: L. infantum IC50

For `N#Cc1ccc2nc(NC(=O)c3cnc(C(F)(F)F)nc3)n(CC(F)(F)F)c2c1` [Compound 46, O=C(c1cnc(C(F)(F)F)nc1)Nc2nc(ccc(C#N)c3)c3n2CC(F)(F)F], the “potency compared to initial hit 1” value was 10 to 20 fold.

same assay, conditions: Leishmania infantum, 120 h, intracellular amastigotes in PMM, 5 days; read-out: L. infantum IC50

Point of comparison: `Cn1nccc1C(=O)Nc1nc2cccnc2n1CC(F)(F)F` [Compound 53, O=C(c1ccnn1C)Nc2nc(cccn3)c3n2CC(F)(F)F], IC50 8.2 µM. Against it:
- Cn1nccc1C(=O)Nc1nc2ccc(C#N)cc2n1CC(F)F [Compound 47, FC(F)Cn1c(cc(C#N)cc2)c2nc1NC(c3ccnn3C)=O] — within 1.5-fold, 8.8 µM
- N#Cc1ccc2nc(NC(=O)c3cnc(C(F)(F)F)nc3)n(CC(F)(F)F)c2c1 [Compound 46, O=C(c1cnc(C(F)(F)F)nc1)Nc2nc(ccc(C#N)c3)c3n2CC(F)(F)F] — 8.2-fold lower, 1 µM
- Cn1nccc1C(=O)Nc1nc2ccc(C#N)cc2n1C1CC1 [Compound 31, O=C(c1ccnn1C)Nc2nc(ccc(C#N)c3)c3n2C4CC4] — 3.7-fold higher, 30 µM
- Cc1ccc(C(=O)Nc2nc3ccc(C#N)cc3n2CC(F)(F)F)cn1 [Compound 42, O=C(c1ccc(C)nc1)Nc2nc(ccc(C#N)c3)c3n2CC(F)(F)F] — 1.7-fold lower, 4.7 µM

same assay, conditions: Leishmania infantum, S1 Data; read-out: L. infantum IC50

Point of comparison: `Cn1nccc1C(=O)Nc1nc2ccc(C#N)cc2n1CC(F)F` [Compound 47, FC(F)Cn1c(cc(C#N)cc2)c2nc1NC(c3ccnn3C)=O], IC50 8.78 µM. Against it:
- Cn1nccc1C(=O)Nc1nc2cccnc2n1CC(F)(F)F [Compound 53, O=C(c1ccnn1C)Nc2nc(cccn3)c3n2CC(F)(F)F] — within 1.5-fold, 8.18 µM
- Cn1nccc1C(=O)Nc1nc2ccc(C#N)cc2n1C1CC1 [Compound 31, O=C(c1ccnn1C)Nc2nc(ccc(C#N)c3)c3n2C4CC4] — 3.4-fold higher, 30 µM
- Cc1ccc(C(=O)Nc2nc3ccc(C#N)cc3n2CC(F)(F)F)cn1 [Compound 42, O=C(c1ccc(C)nc1)Nc2nc(ccc(C#N)c3)c3n2CC(F)(F)F] — 1.9-fold lower, 4.65 µM

test system: not listed separately; assay: Mouse liver microsomal stability; assay type: in vitro ADME; details: CD1, mouse, liver microsomes, pH 7.4, S1 Data; read-out: MLM CLint
Experimental: The metabolic stability of the compounds was evaluated in human (pool of 200 donors, XenoTech) and mouse liver microsomes (CD1 mouse, GIBCO). Test compounds were prepared at a concentration of 0.5 μM and incubated with 0.25 mg/mL liver microsomes at pH 7.4 and 37°C. The reaction was started by addition of NADPH at […]. Samples were taken at 0, 5, 10, 15, 20 and 30 minutes. The reaction was stopped by the addition of acetonitrile:methanol (1:1) containing an internal standard (tolbutamide at 50 nM). Compounds were quantified by liquid chromatography triple quadrupole mass spectrometry (LC-MS/MS). Peak area ratios (analyte/internal standard) were converted to % remaining using the area ratio at time 0 as 100%. Half-life (t1/2 = ln(2)/k) in minutes and intrinsic clearance (Clint = k x 1000/(0.25)) in μL/min/mg were calculated using a non-linear regression from % remaining versus incubation time. From this plot, the slope (k) was determined. The analysis conditions were: analytical column (Gemini C18, […], Phenomenex), electrospray ionization source (ESI) in positive and negative mode, mobile phase A (water + 0.1% formic acid) and B (acetonitrile + 0.1% formic acid), flow rate of 0.7 mL/min.

Point of comparison: `Cn1nccc1C(=O)Nc1nc2cccnc2n1CC(F)(F)F` [Compound 53, O=C(c1ccnn1C)Nc2nc(cccn3)c3n2CC(F)(F)F], microsomal CLint at 0.5 μM 118 µL/min/mg. Against it:
- Cn1nccc1C(=O)Nc1nc2ccc(C#N)cc2n1C1CC1 [Compound 31, O=C(c1ccnn1C)Nc2nc(ccc(C#N)c3)c3n2C4CC4] — within 1.5-fold, 162 µL/min/mg

same assay, conditions: S1 Data

In the case of `Cn1nccc1C(=O)Nc1nc2ccc(C#N)cc2n1CC(F)F` [Compound 47, FC(F)Cn1c(cc(C#N)cc2)c2nc1NC(c3ccnn3C)=O], the “MLM CLint” value is reported as 383 µL/min/mg.

same assay, conditions: mouse liver microsome intrinsic clearance

With `Cn1nccc1C(=O)Nc1nc2cccnc2n1CC(F)(F)F` [Compound 53, O=C(c1ccnn1C)Nc2nc(cccn3)c3n2CC(F)(F)F] the “MLM CLint” value was 119 µL/min/mg.

test system: PMM (Primary Mouse Macrophages); assay: Cytotoxicity on primary peritoneal mouse macrophages; assay type: cell-based; details: Mus musculus, Macrophage, read-out: PMM IC50
Experimental: as §1, §2

Point of comparison: `Cn1nccc1C(=O)Nc1nc2cccnc2n1CC(F)(F)F` [Compound 53, O=C(c1ccnn1C)Nc2nc(cccn3)c3n2CC(F)(F)F], IC50 32 µM. Against it:
- Cn1nccc1C(=O)Nc1nc2ccc(C#N)cc2n1CC(F)F [Compound 47, FC(F)Cn1c(cc(C#N)cc2)c2nc1NC(c3ccnn3C)=O] — within 1.5-fold, 22.6 µM
- N#Cc1ccc2nc(NC(=O)c3cnc(C(F)(F)F)nc3)n(CC(F)(F)F)c2c1 [Compound 46, O=C(c1cnc(C(F)(F)F)nc1)Nc2nc(ccc(C#N)c3)c3n2CC(F)(F)F] — 8-fold lower, 4 µM
- Cn1nccc1C(=O)Nc1nc2ccc(C#N)cc2n1C1CC1 [Compound 31, O=C(c1ccnn1C)Nc2nc(ccc(C#N)c3)c3n2C4CC4] — higher, > 64 µM
- Cc1ccc(C(=O)Nc2nc3ccc(C#N)cc3n2CC(F)(F)F)cn1 [Compound 42, O=C(c1ccc(C)nc1)Nc2nc(ccc(C#N)c3)c3n2CC(F)(F)F] — 4-fold lower, 8 µM

test system: not listed separately; assay: MRC-5 cytotoxicity; assay type: cell-based; details: human, MRC-5 cells; S1 Data

Point of comparison: `Cn1nccc1C(=O)Nc1nc2cccnc2n1CC(F)(F)F` [Compound 53, O=C(c1ccnn1C)Nc2nc(cccn3)c3n2CC(F)(F)F], CC50 6.83 µM. Against it:
- Cn1nccc1C(=O)Nc1nc2ccc(C#N)cc2n1CC(F)F [Compound 47, FC(F)Cn1c(cc(C#N)cc2)c2nc1NC(c3ccnn3C)=O] — 1.8-fold higher, 12.3 µM
- N#Cc1ccc2nc(NC(=O)c3cnc(C(F)(F)F)nc3)n(CC(F)(F)F)c2c1 [Compound 46, O=C(c1cnc(C(F)(F)F)nc1)Nc2nc(ccc(C#N)c3)c3n2CC(F)(F)F] — 3.8-fold lower, 1.78 µM
- Cn1nccc1C(=O)Nc1nc2ccc(C#N)cc2n1C1CC1 [Compound 31, O=C(c1ccnn1C)Nc2nc(ccc(C#N)c3)c3n2C4CC4] — higher, > 64 µM
- Cc1ccc(C(=O)Nc2nc3ccc(C#N)cc3n2CC(F)(F)F)cn1 [Compound 42, O=C(c1ccc(C)nc1)Nc2nc(ccc(C#N)c3)c3n2CC(F)(F)F] — higher, > 64 µM
